The values below come from patent US20260092061A1, “COMPOUNDS FOR TARGETED PROTEIN DEGRADATION” (Amphista Therapeutics Limited, priority 2022, published 2026).

What is called Dmax is the greatest extent of degradation seen. By DC50 is commonly meant the concentration at which degradation of the target reaches its halfway point.

The target of assay [1] is T1, BRD9 (Homo sapiens, UniProt Q9H8M2).
T1 sequence (Q9H8M2 1-597): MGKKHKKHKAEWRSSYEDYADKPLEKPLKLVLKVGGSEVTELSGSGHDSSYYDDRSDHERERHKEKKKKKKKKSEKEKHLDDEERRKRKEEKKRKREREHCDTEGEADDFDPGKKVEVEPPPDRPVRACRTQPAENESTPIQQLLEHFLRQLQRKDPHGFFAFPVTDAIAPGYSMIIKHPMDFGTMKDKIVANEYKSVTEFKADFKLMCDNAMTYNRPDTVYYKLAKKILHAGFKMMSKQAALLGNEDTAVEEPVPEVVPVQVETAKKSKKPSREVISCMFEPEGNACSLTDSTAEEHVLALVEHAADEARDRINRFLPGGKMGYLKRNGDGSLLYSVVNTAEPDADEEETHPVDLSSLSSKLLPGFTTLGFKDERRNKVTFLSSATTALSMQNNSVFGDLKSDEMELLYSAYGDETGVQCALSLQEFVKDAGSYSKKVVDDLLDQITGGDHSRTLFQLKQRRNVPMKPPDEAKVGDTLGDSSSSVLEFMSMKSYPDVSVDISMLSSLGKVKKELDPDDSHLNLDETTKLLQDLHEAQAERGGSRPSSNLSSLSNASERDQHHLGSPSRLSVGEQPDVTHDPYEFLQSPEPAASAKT
Put plainly: Degradation of BRD9 (IF), immunofluorescence in MV4-11 cells, 24 hours (Assay Protocol 2). In kind it is cell-based. Details: A suspension of MV4-11 cells (ATCC CRL-9591) was prepared; host or cells: MV4-11. The settings on record: BRD9 degradation; for Dmax: MV4-11, Assay protocol 2, read-out: Dmax; for DC50: Assay protocol 2, read-out: DC50. The method in brief:
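MV4-11 cells treated with compound 24 h at 37° C., then fixed, permeabilised and immunostained for BRD9 (anti-BRD9 E4Q3F, Alexa 647 secondary, Hoechst counterstain). High-content imaging quantified nuclear BRD9 signal; % BRD9 remaining normalised to DMSO and 100 nM CFT-8634 controls.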

For assay [2], the target named is T1, BRD9. Kind of assay: BRD9 degradation, HiBiT-BRD9 KI HEK293 (LgBiT) cells, NanoGlo Lytic Endpoint assay (Assay Protocol 1). In kind it is cell-based. To be noted: Assay protocol 1, BRD9 degradation; for DC50: read-out: DC50; for Dmax: HEK293, read-out: Dmax. In a few lines:
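HiBiT-tagged BRD9 knock-in HEK293 (LgBiT) cells exposed to compounds for 6 h at 37 °C, 5% CO2. Residual BRD9 measured by HiBiT lytic luminescence. % BRD9 remaining normalised to DMSO-treated cells (high) and no-cell wells (low).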
In general terms: The HiBiT peptide binds its large partner to form an active luciferase.

For the molecule `COc1cc(-c2cn(C)c(=O)c(C)c2C)cc(OC)c1CN1CCN(Cc2cccc3c2CCN(C(=O)/C(C#N)=C/c2ncc(C(F)(F)F)s2)C3C)CC1` (mixture of isomers) [Compound B10, (E/Z)-2-(5-((4-(2,6-dimethoxy-4-(1,4,5-trimethyl-6-oxo-1,6-dihydropyridin-3-yl)benzyl)piperazin-1-yl)methyl)-1-methyl-1,2,3,4-tetrahydroisoquinoline-2-carbonyl)-3-(5-(trifluoromethyl)thiazol-2-yl)acrylonitrile], the Dmax on BRD9 [1] fell in the range of 40 to 70%. Moreover, on BRD9 [2], the DC50 is 0.00125 to 0.01 µM and the Dmax fell in the range of 70 to 75%.
For the molecule `COc1cc(-c2cn(C)c(=O)c(C)c2C)cc(OC)c1CN1CCN(Cc2cccc3c2CCN(C(=O)/C(C#N)=C/c2nc(C(F)(F)F)cs2)C3C)CC1` (mixture of isomers) [Compound B11, (E/Z)-2-(5-((4-(2,6-dimethoxy-4-(1,4,5-trimethyl-6-oxo-1,6-dihydropyridin-3-yl)benzyl)piperazin-1-yl)methyl)-1-methyl-1,2,3,4-tetrahydroisoquinoline-2-carbonyl)-3-(4-(trifluoromethyl)thiazol-2-yl)acrylonitrile], on BRD9 [1], the DC50 was below 0.00125 µM and the Dmax is above 75%. Moreover, on BRD9 [2], the DC50 is below 0.00125 µM and the maximal degradation (Dmax) was above 75%.
With `COc1cc(-c2cn(C)c(=O)c(C)c2C)cc(OC)c1CN1CC2CC(C1)N2Cc1cccc(C2CCCN2C(=O)/C(C#N)=C/c2cccc(Br)n2)c1` (mixture of isomers) [Compound B12, (E/Z)-3-(6-bromopyridin-2-yl)-2-(2-(3-((3-(2,6-dimethoxy-4-(1,4,5-trimethyl-6-oxo-1,6-dihydropyridin-3-yl)benzyl)-3,6-diazabicyclo[3.1.1]heptan-6-yl)methyl)phenyl)pyrrolidine-1-carbonyl)acrylonitrile], the 50% degradation concentration (DC50) on BRD9 [1] lay in the range of 0.00125 to 0.01 µM; on BRD9 [2], 0.01 to 0.025 µM. In addition, the Dmax at BRD9 [1] and at BRD9 [2] was above 75% in each case.
As for `COc1cc(-c2cn(C)c(=O)c(C)c2C)cc(OC)c1CN1C2CC1CN(Cc1cccc3c1CCN(C(=O)/C(C#N)=C/C(C)(C)C)C3C)C2` (mixture of isomers) [Compound B13, (E/Z)-2-(5-((6-(2,6-dimethoxy-4-(1,4,5-trimethyl-6-oxo-1,6-dihydropyridin-3-yl)benzyl)-3,6-diazabicyclo[3.1.1]heptan-3-yl)methyl)-1-methyl-1,2,3,4-tetrahydroisoquinoline-2-carbonyl)-4,4-dimethylpent-2-enenitrile], the DC50 at BRD9 [1] fell in the range of 0.00125 to 0.01 µM; on BRD9 [2] it was 0.01 to 0.025 µM. For the same molecule, the values for the Dmax on BRD9 [1] and on BRD9 [2] were 40 to 70% and above 75%, respectively.
On the same counts, the results for `COc1cc(-c2cn(C)c(=O)c(C)c2C)cc(OC)c1CN(C)Cc1cccc2c1CCN(C(=O)/C(C#N)=C/c1cccc(Br)n1)C2C` (mixture of isomers) [Compound B14, (E/Z)-3-(6-bromopyridin-2-yl)-2-(5-(((2,6-dimethoxy-4-(1,4,5-trimethyl-6-oxo-1,6-dihydropyridin-3-yl)benzyl)(methyl)amino)methyl)-1-methyl-1,2,3,4-tetrahydroisoquinoline-2-carbonyl)acrylonitrile] are 0.00125 to 0.01 µM, 0.00125 to 0.01 µM, above 75% and above 75%.
`COc1cc(-c2cn(C)c(=O)c(C)c2C)cc(OC)c1CN(C)Cc1cccc2c1CCN(C(=O)/C(C#N)=C/c1cccc(C(F)(F)F)n1)C2C` (mixture of isomers) [Compound B15, (E/Z)-2-(5-(((2,6-dimethoxy-4-(1,4,5-trimethyl-6-oxo-1,6-dihydropyridin-3-yl)benzyl)(methyl)amino)methyl)-1-methyl-1,2,3,4-tetrahydroisoquinoline-2-carbonyl)-3-(6-(trifluoromethyl)pyridin-2-yl)acrylonitrile]: at BRD9 [1], the DC50 was below 0.00125 µM and the Dmax was above 75%. At BRD9 [2], the DC50 lay within 0.00125 to 0.01 µM and the Dmax was above 75%.
